“Also recorded” adds a separate entry of the source.
Key:
Type in all cases: biochemical
[1] = molecular target: T1, Human α-galactosidase (GalA) (Homo sapiens, UniProt P06280); assay: Covalent inhibition (inactivation) kinetics of Human α-galactosidase (GalA); details: for covalent inhibition observed: at 5 mM inhibitor, NIO = No inhibition observed, pH 4.6, 37 °C
T1 construct: purchased Biotechne
T1 sequence (P06280 32-429): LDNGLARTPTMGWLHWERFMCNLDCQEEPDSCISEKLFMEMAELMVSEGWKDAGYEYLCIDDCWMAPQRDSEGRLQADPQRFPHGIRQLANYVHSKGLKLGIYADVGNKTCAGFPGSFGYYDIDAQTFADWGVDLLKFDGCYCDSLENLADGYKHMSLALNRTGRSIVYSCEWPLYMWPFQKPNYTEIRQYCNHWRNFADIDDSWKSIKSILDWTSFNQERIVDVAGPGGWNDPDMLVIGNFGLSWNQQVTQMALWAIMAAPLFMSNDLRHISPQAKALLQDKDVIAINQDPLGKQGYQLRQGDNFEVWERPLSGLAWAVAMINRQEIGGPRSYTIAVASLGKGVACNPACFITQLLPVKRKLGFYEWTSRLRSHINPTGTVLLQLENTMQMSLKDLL
Protocol: (§1) Recombinant Human α-galactosidase (GalA) was purchased from Biotechne, and Aspergillus oryzae β-galactosidase was purchased from Sigma. We calculated the various rate constants for covalent inhibition of these two glycosidases by compounds 1 to 4 by use of either a classical jump dilution assay or a continuous assay protocol.
(§2) First, we incubated the enzyme using at least five different inhibitor concentrations in the appropriate buffer. We then ‘jump-diluted’ the inactivation mixture by adding 4 µL aliquots of the inhibition mixture to a pre-equilibrated 196 µL buffered solution containing substrate (see assay conditions section). We monitored the enzymatic activity using either UV-vis (Cary300, Agilent Technologies, Santa Clara, CA, United States) or fluorescence (Cary Eclipse). All rate constants for inhibition (kobs) were calculated using a standard nonlinear least squares fit of enzyme activity (%) versus time data to a first-order equation. We then used a standard Michaelis–Menten expression to evaluated kinact and kinact/Ki for covalent inhibition using a standard nonlinear least squares fitting routine. However, in cases where we noted insufficient saturation of inhibitor, we used a standard linear fit of the kobs versus covalent inhibitor concentration to obtain the inhibition rate constant kinact/Ki.
(§3) Second, we also used a continuous assay protocol in which we added the enzyme to a pre-equilibrated buffered mixture containing substrate and inhibitor. We monitored the reaction continuously until we noted that the rate of fluorophore (or chromophore) became linear following the initial first-order process. We repeated these experiments for at least five other inhibitor concentrations. We calculated the apparent rate constant (kapp) at every inhibitor concentration by fitting the progress curves to equation 1 (for UV-Vis or a similar equation for fluorescence data), where Vi is the initial velocity at t = 0 and Vf is the velocity at t = ∞ [31]. (1) Abs=νft+νi−νf/kapp1−e^−kappt
(§4) The kapp values versus inhibitor concentrations were then fit to a modified Michaelis–Menten expression for competitive inhibition (equation 2), which gives the second-order inhibition parameter kinact/Ki only. (2) kapp=kreact+kinact/KiI/1+S/Km
(§5) The release of 4-nitrophenol was monitored at 400 nm, while the release of 4-methylumbelliferone was monitored at 365 nm excitation and 445 emission wavelengths. All rate constants were determined by fitting experimental data on the computer program GraphPad Prism 10.0 (GraphPad Software, Boston, MA, USA).

[2] = molecular target: T2, A. oryzae GH35 β-galactosidase (LacA) (Aspergillus oryzae, UniProt Q2UCU3); assay: Reactivation kinetics of covalently inhibited A. oryzae β-galactosidase (LacA); details: 50 mM sodium acetate buffer, pH 4.5, 0.1% BSA, 37 °C; for t1/2: half-life of covalent intermediate
T2 construct: purchased Sigma
T2 sequence (Q2UCU3 19-1005): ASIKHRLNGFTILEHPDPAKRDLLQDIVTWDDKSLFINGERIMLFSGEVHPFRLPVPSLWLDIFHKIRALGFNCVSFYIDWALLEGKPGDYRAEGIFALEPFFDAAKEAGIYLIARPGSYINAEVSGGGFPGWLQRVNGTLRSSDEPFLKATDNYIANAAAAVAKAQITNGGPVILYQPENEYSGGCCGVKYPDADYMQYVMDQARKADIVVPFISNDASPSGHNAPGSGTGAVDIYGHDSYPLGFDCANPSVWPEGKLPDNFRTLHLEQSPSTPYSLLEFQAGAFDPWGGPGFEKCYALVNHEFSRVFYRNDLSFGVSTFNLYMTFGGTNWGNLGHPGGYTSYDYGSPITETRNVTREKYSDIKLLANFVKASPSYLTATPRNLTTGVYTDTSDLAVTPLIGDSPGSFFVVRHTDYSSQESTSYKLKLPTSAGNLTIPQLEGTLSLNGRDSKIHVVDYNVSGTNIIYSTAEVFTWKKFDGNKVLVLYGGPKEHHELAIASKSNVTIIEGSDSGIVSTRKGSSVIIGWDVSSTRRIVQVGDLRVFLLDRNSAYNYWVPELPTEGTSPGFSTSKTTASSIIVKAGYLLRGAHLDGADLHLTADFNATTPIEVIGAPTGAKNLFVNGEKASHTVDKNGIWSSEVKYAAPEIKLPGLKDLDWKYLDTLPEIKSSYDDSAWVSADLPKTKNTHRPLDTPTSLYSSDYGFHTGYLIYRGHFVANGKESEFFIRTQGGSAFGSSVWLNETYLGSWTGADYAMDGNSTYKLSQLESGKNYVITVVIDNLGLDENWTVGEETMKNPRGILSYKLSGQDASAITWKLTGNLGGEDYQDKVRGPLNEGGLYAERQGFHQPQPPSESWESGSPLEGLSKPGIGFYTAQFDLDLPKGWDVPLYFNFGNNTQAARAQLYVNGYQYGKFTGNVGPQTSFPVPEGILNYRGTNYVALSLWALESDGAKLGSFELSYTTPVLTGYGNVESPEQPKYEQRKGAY
Protocol: (§6) In summary, all inhibitors that covalently label either Human α-galactosidase or Aspergillus oryzae β-galactosidase display linear second-order kinetics where the slopes of the graphs give kinact/Ki (Table 1 and Table 2). That is, no saturation binding is noted even up to inhibitor concentrations of 8 mM, i.e., Ki » 8 mM. […] As a result, reactivation kinetics were monitored by diluting a quantity of inhibited enzyme into a buffered solution containing substrate. Shown in Figure 3 are the measured gradients (time intervals of 100 s) from the absorbance versus time plot of the reactivation for GH35 A. oryzae β-galactosidase with 1–3.
(§7) We monitored a concentrated solution of enzyme and inhibitor at 37 °C until the measured enzyme activity dropped to under 5% of that initially measured. We then added a small volume (typically 0.5 µL) to a pre-equilibrated reactivation buffer containing substrate (200 µL). We then continuously monitored the release of either the chromophore or the fluorophore. We then calculated signal versus time gradient slope at uniform time intervals to give reaction rates. We fit these computed values to a standard first-order rate equation (Prism 10.0) to give us the first order reactivation rate constant (kreact).

[3] = molecular target: T1, Human α-galactosidase (GalA); assay: Reactivation kinetics of covalently inhibited Human α-galactosidase (GalA); details: 50 mM sodium citrate buffer, pH 4.6, 50 mM NaCl, 0.1% BSA, 37 °C; for t1/2: half-life of covalent intermediate
Protocol: as §6, §7

[4] = molecular target: T2, A. oryzae GH35 β-galactosidase (LacA); assay: Covalent inhibition (inactivation) kinetics of A. oryzae β-galactosidase (LacA); details: for kinact/Ki: 50 mM sodium acetate buffer
Protocol: as §1, §2, §3, §4, §5

| SMILES | kinact/Ki ([1]; 50 mM sodium citrate buffer, pH 4.6, 50 mM NaCl, 0.1% BSA, 37 °C) | kreact [2] | t1/2 [2] | kreact [3] | t1/2 [3] | kinact/Ki ([4]; pH 4.5, 0.1% BSA, 37 °C) | kinact/KI ([1]; pH 4.6, 50 mM sodium citrate buffer, pH 4.6, 50 mM NaCl, 0.1% BSA, 37 °C) | covalent inhibition observed [1] | kinact/KI ([4]; pH 4.5, 50 mM sodium acetate buffer, pH 4.5, 0.1% BSA, 37 °C) | covalent inhibition observed ([4]; at 1 mM inhibitor, NIO = No inhibition observed, pH 4.5, 37 °C) |
| --- | --- | --- | --- | --- | --- | --- | --- | --- | --- | --- |
| OC1C=CC(Cl)C(O)C1O (stereo not drawn) [Compound 3] | 0.18 ± 0.01 M⁻¹ s⁻¹ | (2.6 ± 0.2) × 10^−3 s^−1 | 4.5 ± 0.3 min | (4.9 ± 0.2) × 10^−4 s^−1 | 23.4 ± 0.9 min | 2.7 ± 0.04 M⁻¹ s⁻¹ | – | – | – | – |
| OC1C=CC(Cl)C(O)C1O (stereo not drawn) [Compound 2] | – | (2.6 ± 0.2) × 10^−3 s^−1 | 4.5 ± 0.3 min | (5.1 ± 0.2) × 10^−4 s^−1 | 22.5 ± 0.7 min | 47 ± 2 M⁻¹ s⁻¹ | 0.25 ± 0.004 M⁻¹ s⁻¹ | – | – | – |
| O[C@@H]1[C@@H](O)[C@@H](O)C=C[C@H]1Cl [Compound 1, 5,5a-didehydro-5a-carba-β-L-arabino-hexopyranosyl chloride] | – | (2.5 ± 0.1) × 10^−3 s^−1 | 4.6 ± 0.2 min | – | – | – | – | no measurable covalent inhibition; also recorded: NIO ^a at 5 mM | 17 ± 0.5 M⁻¹ s⁻¹ | – |
| O[C@@H]1[C@H](O)[C@@H](O)C=C[C@H]1Cl [Compound 4] | – | – | – | – | – | – | – | no measurable covalent inhibition; also recorded: NIO ^a at 5 mM | – | no activity; also recorded: NIO ^a at 1 mM |

Source: paper PMC11510499, “Mechanism-Based Allylic Carbasugar Chlorides That Form Covalent Intermediates with α- and β-Galactosidases” (Molecules, 2024)
